Measured values taken from a melting point compilation (Tetko et al.; mined from patent text by program, amines drawn as free bases though some values may be those of a salt).

Row | melting point [°C] | SMILES
1 | 203 to 205 | CCOc1cccc(-c2ccc(C3=CCN(S(=O)(=O)C4(C(=O)O)CCOCC4)CC3)cc2C)c1
2 | 225 to 226 | OCc1cccc(-c2cc3nccnc3[nH]2)c1
3 | 106 | CC(=O)N1c2ccc(-c3ccc(CN4CCCCC4)cc3)cc2C(Nc2ccc(F)cc2)CC1C (stereo not drawn)
4 | 135 | CCOC(=O)C(C)(C)Oc1ccc(-c2ccc(CCNC(=O)c3ccc(F)cc3)cc2)cc1
5 | 83 to 86 | CCOCn1c(C(F)(F)F)c(C#N)c2ccc(Cl)cc21
6 | 108 to 110 | CC(C)(C)C(=O)OCn1nc2ccc(OCCCN3CCC(OC(c4ccccc4)c4ccccc4)CC3)nn2c1=O
7 | 168 to 169 | CN(C(=O)C(C)(C)NC(=O)OCc1ccccc1)c1ccc([N+](=O)[O-])cc1C(=O)c1ccccc1F
8 | 168 to 170 | COC(=O)c1c(C(C)C)nc2c(c1-c1ccc(F)cc1)CCCN2
9 | 143 to 146 | O=C(Nc1ccc(-n2nc(C(F)(F)F)cc2C2CC2)cc1)c1ccncc1F
10 | 200 | COc1cc(CCN2CCN(c3nsc4ccccc34)CC2)c(NC(=O)Nc2ccccc2C)cc1OC
11 | 215 to 217 | CC(C)CC(=O)Nc1cccc(-c2ccnc3c(-c4ccc(Cl)cc4)cnn23)c1
12 | 240 to 242 | COc1ccc(Cn2c(S)nnc2C(N)=O)cc1
13 | 141 to 143 | CCOC(=O)C1=C(C)NC(c2csc(Cl)n2)=NC1c1ccc(F)cc1Cl (stereo not drawn)
14 | 132 to 137 | COC(=O)CCCc1cc2cc(Cl)ccc2n1S(=O)(=O)c1ccc2c(c1)CCO2
15 | 98 to 99 | O=C1OC(CCO)C(O)=C1OCc1ccccc1 (stereo not drawn)
16 | 153 to 154 | CCc1ccc(OC(C)=O)c(C2(OC(C)=O)C(=O)c3ccccc3C2=O)c1
17 | 114 to 115 | CC1(C)C(c2ccc(S(C)(=O)=O)cc2)=C(c2ccccc2)C1(C)O (stereo not drawn)
18 | 92 to 95 | CCCCCCCCCCCCCCCCCCOc1cc(OCCCOc2ccc(O)cc2)cc(C(=O)O)c1
19 | 165 | CN(c1ccc(O)cc1)c1ncnc2cc(Cl)ccc12

Row | melting point [°C] | SMILES
20 | 185 | O=[N+]([O-])c1cnc2ccc(Oc3ccc(CNc4ncncc4Cl)cc3)nn12
21 | 133 to 135 | O=C(CC(CSC(=O)c1ccccc1)C(=O)O)c1ccc(Br)cc1 (stereo not drawn)
22 | 169 to 170 | O=C(Cc1ccccc1)c1c(O)c2cccnc2n(-c2ccccc2)c1=O
23 | 155 to 157 | C#Cc1c2ccccc2nc2c(OC)ccc(OC)c12
24 | 221 | CCOC(=O)COc1ccc(Cn2c(-c3ccc(C(F)(F)F)cc3)c(C)c3cc(OCc4ccccc4)ccc32)cc1
25 | 114 to 115 | Cc1ncc2c(n1)-c1ccccc1C2(Cc1ccnc(F)c1)Cc1ccnc(F)c1
26 | 223 to 225 | CN(C)C(=O)c1cc2c(nc(C(F)(F)F)n2C)c2c1CCC(c1ccccc1)O2 (stereo not drawn)
27 | 198 | COC(=O)C1=C(C)NN=C(c2ccccc2)C1c1ccccc1Cl (stereo not drawn)
28 | 88 to 90 | O=C(O)c1cn(-c2ccccc2)c2c(F)c(F)c(F)cc2c1=O
29 | 122 to 123 | N#Cc1cc(Br)c(OC(=O)OCOC(=O)c2ccc(Oc3ccc(C(F)(F)F)cc3Cl)cc2[N+](=O)[O-])c(Br)c1
30 | 211 to 214 | COc1c(Cl)ccc(-c2cc(N)c(Cl)c(C(=O)N(C)O)n2)c1F
31 | 120 | CNc1ccccc1CS(=O)c1nc2ncccc2[nH]1 (stereo not drawn)
32 | 91 to 92 | C[C@@H](NCC1COc2ccccc2N1)c1ccccc1 (stereo partly drawn)
33 | 178 to 180 | CC(C)(C)c1ccc(C2OCC(CO)(NC(=O)c3c(Cl)cccc3Cl)CO2)cc1 (stereo not drawn)
34 | 201 to 204 | CC(C)(Cc1ccc(OCCCC(=O)O)cc1)NCC(O)c1cc(O)cc2c1OCC(=O)N2 (stereo not drawn)
35 | 165 to 168 | CN1CCN(c2ccc(S(=O)(=O)Oc3ccc(Cl)cc3)cc2)C1=O
36 | 92 to 93 | COc1cccc(CC2CCCc3cc(OCc4ccccc4)c(OC)cc3N2)c1 (stereo not drawn)
37 | 150 to 152 | N#Cc1ccc(-c2ccc(OCc3ccccc3)cc2)cc1
38 | 210 to 211 | c1cncc(-c2ccc(N3CCCN(c4ccc(-c5cccnc5)cn4)CC3)nc2)c1

Row | melting point [°C] | SMILES
39 | 146 to 148 | COc1ccc(CNc2cc(Cl)ncc2C=O)cc1Cl
40 | 253 | Cc1cc(-c2cc3nccnc3[nH]2)cn1C
41 | 168 | O=C(Nc1cc2ccccc2cn1)c1ncccc1NCc1ccncc1
42 | 126 to 128 | Clc1ccc(-n2ccc(OCCOCCN3CCCCC3)n2)cc1Cl
43 | 57 to 59 | C#Cc1ccc(-c2ccccc2)c(C)c1
44 | 57 to 58 | Cc1cc(N)c(OCc2ccccc2)c(Cl)c1C
45 | > 230 | Nc1nc2c(c(=O)[nH]1)n(CC(=O)c1ccc(Cl)cc1)c(=O)n2C1OC(CO)C(O)C1O (stereo not drawn)
46 | 134 to 136 | COc1ccc2ccc(C(N)=O)c(OC)c2c1
47 | 150 to 152 | CCC(C)NC(Nc1cc(Cl)cc(Cl)c1)=C(C#N)S(=O)(=O)c1ccc(Cl)cc1 (stereo not drawn)
48 | 146 | Cc1cccc(N2CCN(c3ccc(Br)nn3)CC2)c1
49 | 275 | Cc1nn(-c2ccc3cc(-c4ccc(C(=O)Cl)cc4)oc3c2)nc1-c1ccccc1
50 | 127 | COc1ncccc1-c1cc(F)c(F)c(OC2SCC(O)C(O)C2O)c1 (stereo not drawn)
51 | 158 to 159 | O=C1Nc2ccccc2SC1CCN1C=CN(c2ccc(F)cc2)C=C1 (stereo not drawn)
52 | 195 to 196 | CC(C)N1C(=O)c2cnc(-c3ccccc3)nc2Nc2ccccc21
53 | 128 | COc1ccc2c(c1)c(C)c(CC(C)C(=O)O)n2Cc1ccc(Cl)cc1 (stereo not drawn)
54 | 247 to 249 | Cc1c(-c2ccc(NC(=O)C(C)C)cc2)sc2ncc(C(=O)C(C)C)c(O)c12
55 | 134 to 136 | Cc1nc2cnccc2n1-c1ccccc1
56 | 78 | COC(=O)C(C)(Oc1cccc(Oc2c(Cl)cc(C(F)(F)F)cc2Cl)c1)[N+](=O)[O-] (stereo not drawn)

Continued, compound first:

Row | SMILES | melting point [°C]
57 | Cc1nnc2n1-c1sc(C#CCn3c(=O)c4c(ncn4C)n(C)c3=O)cc1C(c1ccccc1Cl)=NC2 | 277 to 280
58 | NC(=O)c1cccc(Cc2c[nH]cn2)c1O | 198
59 | NCCCCC(OP(=O)(O)CCCCc1ccc(F)cc1)C(=O)N1CCCC1C(=O)O (stereo not drawn) | 178 to 185
60 | CC(C)Cn1c(=O)n(C)c(=O)c2c(SC(C)C)c(Cn3cnc4ccccc43)sc21 | 195
61 | O=C([C@@H](Cc1ccc(Cl)cc1)NC1CCCCC1)N1CCC(Cn2cncn2)(C2CCCCC2)CC1 | 60
62 | COc1cc2c(cc1Cl)C(=O)CC(C)O2 (stereo not drawn) | 96 to 100
63 | C[C@H](CSC(=O)c1ccccc1)C(=O)N1CSC[C@H]1C(=O)OCOC(=O)C(C)(C)C | 69 to 69.5
64 | COc1cc2c(cc1Cl)CC(C)=NN=C2c1ccc(N)cc1 | 198 to 200
65 | C=Cc1ccc2sc(S(N)(=O)=O)cc2c1 | 168 to 170
66 | COC(=O)C[C@@H](CC(=O)C=Cc1c(-c2ccc(F)cc2)c(-c2ccccc2)c(C(=O)Nc2cccc(S(N)(=O)=O)c2)n1C(C)C)O[Si](C)(C)C(C)(C)C | 90 to 91
67 | O=C(CNc1ccc2[nH]c(=O)oc2c1)N1CCC(Cc2ccccc2)CC1 | 204 to 206
68 | O=S(=O)(c1ccccc1)C(CC(F)(F)F)c1ccc(C(O)(C(F)(F)F)C(F)(F)F)cc1 (stereo not drawn) | 151
69 | CCCc1cc2ccc(CC(=O)O)cc2[nH]1 | 85 to 87
70 | O=C1Cc2ccccc2N1CC(F)(F)F | 155 to 162
71 | CCn1cc(C(=O)O)c(=O)c2cc(F)c(N3CCN(C(C)=O)CC3)cc21 | 300
72 | CS(=O)(=O)NCc1cccc(-c2csc(N=C(N)N)n2)n1 | 196
73 | CCOC(=O)C(NC(C)=O)(C(=O)OCC)C1=Nc2ccc(C#N)cc2C(c2ccccc2F)=NC1 | 138 to 140
74 | O=[N+]([O-])c1c(NCCCO)cc(Cl)cc1NCCCO | 127
75 | COC(=O)c1cccc(CN2CCN(c3nc(C)c(C(C)=O)s3)C2=O)c1 | 122 to 124
76 | COc1ccc2cc(C(=O)CNC(=O)c3cn(Cc4ccccc4)c4ccccc34)ccc2c1 | 177 to 179
77 | CC1(c2ccccc2)OC(=O)COC1=O (stereo not drawn) | 90 to 91

Row | SMILES | melting point [°C]
78 | Nc1cc2c(c(C(=O)O)c1)CCCC2 | 178 to 180
79 | O=C(CO/N=C(\C(=O)O)c1ccco1)NOC(c1ccccc1)c1ccccc1 | 138 to 140
80 | Nc1ccccc1C(=O)CCCO | 58 to 61
81 | CC(C#CC1CCCC1)N(O)C(N)=O (stereo not drawn) | 140 to 141
82 | CC(Cl)c1nc2cccnc2[nH]1 (stereo not drawn) | 132
83 | C[Si](C)(C)c1c(CCC=O)cnc2c1CCO2 | 59 to 60
84 | C=C(CO)C(C(=O)OC(c1ccccc1)c1ccccc1)N1C(=O)C2N=C(Cc3ccccc3)OC21 (stereo not drawn) | 40 to 55
85 | CCCCCCCCc1ccc(C(=O)CCCCCC(=O)OCC)cc1 | 38 to 40
86 | CCOC(=O)c1cnc(CCOC)nc1O | 115 to 118
87 | CCOC(=O)C1=C(C)NC(CSCCC#N)=C(C(=O)OCC)C1c1cccc([N+](=O)[O-])c1 (stereo not drawn) | 102 to 104
88 | OCCNc1c2c(nc3cn[nH]c13)CCCC2 | 205 to 210
89 | Cc1nc2cc(C(=O)NC3CC3)c(NC(=O)c3cc(C(F)(F)F)nn3-c3ncccc3Cl)c(Cl)c2nc1C | 255 to 258
90 | CC(=O)OC1OCC[C@@H]1NC(=O)[C@@H](N)CC(C)C (stereo partly drawn) | 75 to 80
91 | COc1cc2c(cc1OCCCN1CCC(c3noc4cc(F)ccc34)CC1)CCCC2=O | 129 to 131
92 | Nc1c(Cl)cc(C(=O)OCC2CCN(CCCn3nc(Cl)ccc3=O)CC2)c2c1CCO2 | 137
93 | CCOP(=O)(OCC)C1(P(=O)(OCC)OCC)CC(C(=O)c2ccccc2[N+](=O)[O-])=NN1 | 111 to 112
94 | c1ccc(CNc2nc3c(c4[nH]c(Cc5ccccc5)nc24)CCCC3)cc1 | 199 to 200
95 | Cc1sc(NS(=O)(=O)c2c(Cl)cc(Cl)cc2Cl)nc1CC(=O)N1CCOCC1 | 216 to 217
96 | N#Cc1ncn2c1COC(=O)c1ccccc1-2 | 220 to 221
97 | COc1ccc2c(c1OC)CCCC2=O | 103 to 104
98 | CCC1(C)CC(O)CC(C)(C)N1OC(C)(C)C#N (stereo not drawn) | 48 to 60
